Reference: ChEMBL document CHEMBL4806968, “Hipk inhibitors and methods of use thereof” (2020)

Experiments:
[1] = target: T1, Ephrin type-B receptor 4 (Homo sapiens) (UniProt P54760); test: Inhibition of EPHB4 (unknown origin) at 0.5 uM relative to control
T1 sequence (whole entry): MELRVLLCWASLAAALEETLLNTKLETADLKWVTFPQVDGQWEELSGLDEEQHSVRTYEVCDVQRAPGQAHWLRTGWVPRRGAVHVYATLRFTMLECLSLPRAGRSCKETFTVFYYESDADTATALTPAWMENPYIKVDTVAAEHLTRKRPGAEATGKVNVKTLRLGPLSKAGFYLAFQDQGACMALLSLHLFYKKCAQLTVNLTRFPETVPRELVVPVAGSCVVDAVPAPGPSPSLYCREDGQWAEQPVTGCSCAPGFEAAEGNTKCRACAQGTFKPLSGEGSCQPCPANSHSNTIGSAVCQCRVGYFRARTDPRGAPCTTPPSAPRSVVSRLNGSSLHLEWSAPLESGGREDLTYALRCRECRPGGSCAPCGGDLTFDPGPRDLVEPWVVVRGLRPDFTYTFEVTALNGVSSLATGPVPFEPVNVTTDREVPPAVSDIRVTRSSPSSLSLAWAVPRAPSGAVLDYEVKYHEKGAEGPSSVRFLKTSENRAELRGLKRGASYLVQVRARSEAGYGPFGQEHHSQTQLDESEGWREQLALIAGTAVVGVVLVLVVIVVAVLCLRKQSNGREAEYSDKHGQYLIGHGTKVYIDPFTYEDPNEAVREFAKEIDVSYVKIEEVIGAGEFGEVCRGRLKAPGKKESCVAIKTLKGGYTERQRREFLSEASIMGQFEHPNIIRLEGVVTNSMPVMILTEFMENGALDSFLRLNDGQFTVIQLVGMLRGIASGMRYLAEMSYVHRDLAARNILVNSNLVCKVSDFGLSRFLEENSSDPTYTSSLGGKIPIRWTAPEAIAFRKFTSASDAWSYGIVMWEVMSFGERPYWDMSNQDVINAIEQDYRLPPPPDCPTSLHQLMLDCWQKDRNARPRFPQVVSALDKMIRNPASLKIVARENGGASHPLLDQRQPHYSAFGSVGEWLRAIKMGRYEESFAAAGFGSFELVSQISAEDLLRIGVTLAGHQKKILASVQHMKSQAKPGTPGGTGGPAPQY

[2] = target: T2, Ephrin type-A receptor 8 (Homo sapiens) (UniProt P29322); test: Inhibition of EPH-A8 (unknown origin) at 0.5 uM relative to control
T2 sequence (whole entry): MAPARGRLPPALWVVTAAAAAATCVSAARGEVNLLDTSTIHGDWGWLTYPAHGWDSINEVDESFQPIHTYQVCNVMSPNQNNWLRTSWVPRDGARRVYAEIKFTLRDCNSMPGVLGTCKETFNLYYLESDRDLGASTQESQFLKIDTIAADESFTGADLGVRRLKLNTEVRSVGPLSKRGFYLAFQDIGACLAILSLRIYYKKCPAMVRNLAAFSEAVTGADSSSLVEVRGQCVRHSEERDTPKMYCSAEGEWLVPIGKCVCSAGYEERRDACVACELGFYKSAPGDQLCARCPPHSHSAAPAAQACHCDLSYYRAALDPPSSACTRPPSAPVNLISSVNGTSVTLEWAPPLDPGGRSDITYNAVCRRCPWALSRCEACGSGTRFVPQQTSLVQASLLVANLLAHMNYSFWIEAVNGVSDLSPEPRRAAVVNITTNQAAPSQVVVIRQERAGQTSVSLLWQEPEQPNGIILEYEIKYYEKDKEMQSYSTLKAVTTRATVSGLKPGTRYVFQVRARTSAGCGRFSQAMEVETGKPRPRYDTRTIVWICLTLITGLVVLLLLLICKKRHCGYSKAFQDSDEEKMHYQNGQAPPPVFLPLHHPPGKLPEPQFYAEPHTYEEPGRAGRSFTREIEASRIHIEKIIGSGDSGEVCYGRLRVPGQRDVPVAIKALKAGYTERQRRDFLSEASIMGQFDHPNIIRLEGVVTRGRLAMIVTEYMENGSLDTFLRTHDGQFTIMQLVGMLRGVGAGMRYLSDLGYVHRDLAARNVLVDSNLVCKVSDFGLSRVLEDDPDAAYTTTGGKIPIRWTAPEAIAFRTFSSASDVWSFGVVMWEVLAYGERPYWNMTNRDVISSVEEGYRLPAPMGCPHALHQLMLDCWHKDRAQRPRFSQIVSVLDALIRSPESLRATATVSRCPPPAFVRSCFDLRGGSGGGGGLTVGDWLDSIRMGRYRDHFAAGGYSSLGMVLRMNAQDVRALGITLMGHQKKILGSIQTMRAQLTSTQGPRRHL

[3] = target: T3, Ephrin type-B receptor 2 (Homo sapiens) (UniProt P29323); test: Inhibition of EPHB2 (unknown origin) at 0.5 uM relative to control
T3 sequence (whole entry): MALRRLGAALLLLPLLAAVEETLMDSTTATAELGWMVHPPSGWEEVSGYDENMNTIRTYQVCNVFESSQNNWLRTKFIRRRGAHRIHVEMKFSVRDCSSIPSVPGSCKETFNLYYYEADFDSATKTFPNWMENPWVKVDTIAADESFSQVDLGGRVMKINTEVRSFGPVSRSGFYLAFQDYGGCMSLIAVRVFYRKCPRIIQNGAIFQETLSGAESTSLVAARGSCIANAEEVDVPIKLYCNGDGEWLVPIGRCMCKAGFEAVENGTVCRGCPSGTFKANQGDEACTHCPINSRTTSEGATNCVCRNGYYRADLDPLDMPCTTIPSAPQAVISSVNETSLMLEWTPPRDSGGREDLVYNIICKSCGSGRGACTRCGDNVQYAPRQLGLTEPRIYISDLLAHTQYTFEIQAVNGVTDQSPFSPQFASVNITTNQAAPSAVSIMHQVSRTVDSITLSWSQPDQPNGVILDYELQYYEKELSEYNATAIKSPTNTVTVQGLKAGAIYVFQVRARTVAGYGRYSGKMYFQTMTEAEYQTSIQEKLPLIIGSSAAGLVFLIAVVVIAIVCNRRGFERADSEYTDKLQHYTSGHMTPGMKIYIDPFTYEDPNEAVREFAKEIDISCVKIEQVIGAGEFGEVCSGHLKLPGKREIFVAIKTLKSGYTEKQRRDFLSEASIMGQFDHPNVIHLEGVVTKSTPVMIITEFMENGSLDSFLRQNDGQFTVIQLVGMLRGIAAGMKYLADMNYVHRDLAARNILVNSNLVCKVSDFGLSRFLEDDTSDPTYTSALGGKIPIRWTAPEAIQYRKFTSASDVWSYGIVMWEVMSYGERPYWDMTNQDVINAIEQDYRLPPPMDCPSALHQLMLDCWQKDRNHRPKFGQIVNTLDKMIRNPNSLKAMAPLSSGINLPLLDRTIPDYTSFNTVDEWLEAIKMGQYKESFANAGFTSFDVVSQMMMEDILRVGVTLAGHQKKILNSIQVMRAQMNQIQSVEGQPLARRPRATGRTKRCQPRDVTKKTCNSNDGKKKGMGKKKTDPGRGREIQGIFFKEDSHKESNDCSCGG

inhibition [1] | inhibition [2] | inhibition [3] | Compound
82% | 96% | 93% | CNC(=O)c1cc(Oc2ccc(NC(=O)c3nc(SC)[nH]c3-c3ccc(F)cc3)cc2)ccn1
 | 58% | 51% | CNC(=O)c1cc(Oc2ccc(NC(=O)c3nc(NC)sc3-c3ccc(F)cc3)cc2)ccn1
42% |  | 48% | CNC(=O)c1cc(Oc2ccc(NC(=O)c3nc(SC)oc3-c3ccc(F)cc3)cc2)ccn1
43% | 42% | 39% | CNC(=O)c1cc(Oc2ccc(NC(=O)c3nc(SC)oc3-c3ccc(F)cc3)cc2F)ccn1
 |  | 35% | CNC(=O)c1cc(Oc2ccc(NC(=O)c3n[nH]nc3-c3ccc(F)cc3)cc2)ccn1

The next lines start with the molecule.

Compound | inhibition [1] | inhibition [2] | inhibition [3]
CNC(=O)c1cc(Oc2ccc(NC(=O)c3nc(C(F)(F)F)sc3-c3ccc(F)cc3)cc2)ccn1 | 24% | 50% | 
CSc1nc(C(=O)Nc2ccc(Oc3cc4cnn(C)c4cc3Br)cc2)c(-c2ccc(F)cc2)o1 |  | 25% | 
CNC(=O)c1cc(Oc2ccc(NC(=O)c3nc(S(C)(=O)=O)sc3-c3ccc(F)cc3)cc2)ccn1 | 24% |  | 27%
CNC(=O)c1cc(Oc2ccc(NC(=O)c3nc(SC)n(CCN(C)C)c3-c3ccc(F)cc3)cc2)ccn1 | 25% | 57% | 
